# How the values were obtained:
# beta amyloid 40 = test: Aβ40/42 ELISA Assay: Aβ40; type: cell-based; conditions: Cricetulus griseus; CHO cells carrying the APP-REP-NL plasmid, 22 hours, sandwich ELISA of medium
# Procedure: (§1) Pharmacology: Aβ40/42 ELISA Assay
# (§2) Compounds are diluted from DMSO stocks to 2 μM and below in a cell culture medium. Compounds are then applied to CHO cells carrying the APP-REP-NL plasmid [Sudhir et. al, J. Biol. Chem. 267:25602-25608 (1992)] for a period of 22 hours. After the conditioning period, medium is collected, diluted in assay buffer containing protein, and samples, controls, and synthetic peptide standards are incubated on a prepared ELISA plate. Using a sandwich ELISA with antibodies specifically directed against the carboxyl terminus of beta amyloid 40 or 42 [analogous to the method reported by Haugabook et al., J. Neurosci. Methods 108:171-179 (2001) but using goat anti-mouse IgGl (source: Southern Biotech) as the anchor, 6E10 as the capture antibody (Source: SENETEK), rabbit antiαβ40 and antiαβB42 (source: QCB) and APL-donkey anti-rabbit IgG (H+L, source: Southern Biotech) as the detection antibody], the effect of the compound treatment on the cellular production of extracellular beta amyloid is quantified. Cells treated with compound are subsequently incubated in cell culture medium containing […]. After a short incubation period, MTS/medium containing plates are read in a spectrophotometer to determine the extent to which compound toxicity affected the cell's metabolism and ability to synthesize beta amyloid.
# (§3) Test Samples: compound samples are supplied as 20 mM stock solutions in a 100% DMSO solution.
# (§4) APP-REP-NL cells: Qualified cell lines are carried from week to week using 1:100 dilutions and are cultured in DMEM supplemented with 1× antibiotic/antimycotic, 200 μg/ml of G418 antibiotic, and 10% certified fetal calf serum. Cells are also banked in liquid nitrogen. Periodically, beta amyloid production is assessed, and cells are either kept in culture or replaced with progenitors at full expression.
# (§5) Antibodies: Are from certified lots that have already been qualified in this assay. Antibodies are stored in small frozen aliquots at −80° C. that are thawed and used.
# (§6) A compound is considered active if it has an EC50 for Aβ 40 reduction of <100 μM and no toxicity at doses in the vicinity the EC50.
# beta amyloid 42 = test: Aβ40/42 ELISA Assay: Aβ42; type: cell-based; conditions: Cricetulus griseus; CHO cells carrying the APP-REP-NL plasmid, 22 hours, sandwich ELISA of medium
# Procedure: as §1, §2, §3, §4, §5, §6
Compound,EC50 (beta amyloid 40) [µM],EC50 (beta amyloid 42) [µM]
"Cc1cccc(S(=O)(=O)NC(CO)C(C(F)(F)F)C(F)(F)F)c1 (centres unmarked) [Example 15, 3-methyl-N-[3,3,3-trifluoro-1-(hydroxymethyl)-2-(trifluoromethyl)propyl]benzenesulfonamide]",15.1,14.5
"O=S(=O)(NC(CO)C(C(F)(F)F)C(F)(F)F)c1cc(F)cc(F)c1 (centres unmarked) [Example 22, 3,5-Difluoro-N-(3,3,3-trifluoro-1-hydroxymethyl-2-trifluoromethyl-propyl)-benzenesulfonamide]",5.72,6.34
"O=S(=O)(NC(CO)C(C(F)(F)F)C(F)(F)F)c1ccc(Cl)c(F)c1 (centres unmarked) [Example 24, 4-Chloro-3-fluoro-N-(3,3,3-trifluoro-1-hydroxymethyl-2-trifluoromethyl-propyl)-benzenesulfonamide]",1.09,1.14
"Cc1cc(S(=O)(=O)NC(CO)C(C(F)(F)F)C(F)(F)F)ccc1F (centres unmarked) [Example 25, 4-Fluoro-3-methyl-N-(3,3,3-trifluoro-1-hydroxymethyl-2-trifluoromethyl-propyl)-benzenesulfonamide]",6.63,8.37
"O=S(=O)(NC(CO)C(C(F)(F)F)C(F)(F)F)c1ccccc1F (centres unmarked) [Example 28, 2-fluoro-N-(3,3,3-trifluoro-1-hydroxymethyl-2-trifluoromethyl-propyl)-benzenesulfonamide]",23.4,44.2
"O=S(=O)(NC(CO)C(C(F)(F)F)C(F)(F)F)c1cccc(Cl)c1 (centres unmarked) [Example 29, 3-chloro-N-(3,3,3-trifluoro-1-hydroxymethyl-2-trifluoromethyl-propyl)-benzenesulfonamide]",24.2,37.2
"O=S(=O)(NC(CO)C(C(F)(F)F)C(F)(F)F)c1ccccc1Cl (centres unmarked) [Example 30, 2-chloro-N-(3,3,3-trifluoro-1-hydroxymethyl-2-trifluoromethyl-propyl)-benzenesulfonamide]",25.4,24.5
"O=S(=O)(NC(CO)C(C(F)(F)F)C(F)(F)F)c1cccc(Br)c1 (centres unmarked) [Example 32, 3-bromo-N-(3,3,3-trifluoro-1-hydroxymethyl-2-trifluoromethyl-propyl)-benzenesulfonamide]",19.8,25.3
"O=S(=O)(NC(CO)C(C(F)(F)F)C(F)(F)F)c1ccccc1 (centres unmarked) [Example 33, N-(3,3,3-trifluoro-1-hydroxymethyl-2-trifluoromethyl-propyl)-benzenesulfonamide]",6.26,7.02
"O=S(=O)(NC(CO)C(C(F)(F)F)C(F)(F)F)c1cccc(Cl)c1Cl (centres unmarked) [Example 37, 2,3-dichloro-N-(3,3,3-trifluoro-1-hydroxymethyl-2-trifluoromethyl-propyl)-benzenesulfonamide]",11.1,14
"O=S(=O)(NC(CO)C(C(F)(F)F)C(F)(F)F)c1ccc(Cl)c(Cl)c1 (centres unmarked) [Example 38, 3,4-dichloro-N-(3,3,3-trifluoro-1-hydroxymethyl-2-trifluoromethyl-propyl)-benzenesulfonamide]",4.68,6.55
"O=S(=O)(NC(CO)C(C(F)(F)F)C(F)(F)F)c1ccc(F)c(F)c1F (centres unmarked) [Example 40, 2,3,4-trifluoro-N-(3,3,3-trifluoro-1-hydroxymethyl-2-trifluoromethyl-propyl)-benzenesulfonamide]",32.2,45.4
"O=S(=O)(N[C@H](CO)C(C(F)(F)F)C(F)(F)F)c1ccc(Cl)c(Cl)c1 [Example 41, (S)-3,4-Dichloro-N-[3,3,3-trifluoro-1-(hydroxymethyl)-2-(trifluoromethyl)propyl]benzene sulfonamide]",5.57,5.37
"O=S(=O)(NC(CO)C(C(F)(F)F)C(F)(F)F)c1cc(F)c(F)c(F)c1 (centres unmarked) [Example 42, 3,4,5-Trifluoro-N-(3,3,3-trifluoro-1-hydroxymethyl-2-trifluoromethyl-propyl)-benzene sulfonamide]",6.63,5.5
"C[C@@H]([C@@H](CO)NS(=O)(=O)c1ccc(Cl)cc1)C(F)(F)F [Example 43, 4-Chloro-N-[(1S,2S)-3,3,3-trifluoro-1-(hydroxymethyl)-2-methylpropyl]benzenesulfonamide]",0.423,0.384
"C[C@H]([C@@H](CO)NS(=O)(=O)c1ccc(Cl)cc1)C(F)(F)F [Example 44, 4-Chloro-N-[(1S,2R)-3,3,3-trifluoro-1-(hydroxymethyl)-2-methylpropyl]benzenesulfonamide]",2.94,3.51
"O=S(=O)(NC(CO)C(CC(F)(F)F)CC(F)(F)F)c1ccc(Cl)cc1 (centres unmarked) [Example 45, 4-Chloro-N-[4,4,4-trifluoro-1-hydroxymethyl-2-(2,2,2-trifluoro-ethyl)-butyl]-benzenesulfonamide]",0.518,0.504
"C[C@@H]([C@@H](CO)NS(=O)(=O)c1ccc(Cl)c(Cl)c1)C(F)(F)F [Example 46, 3,4-Dichloro-N-[(1S,2S)-3,3,3-trifluoro-1-(hydroxymethyl)-2-methylpropyl]benzenesulfonamide]",5.07,4.84

# The remaining lines, values ahead:
EC50 (beta amyloid 40) [µM],EC50 (beta amyloid 42) [µM],Compound
6.81,6.44,"COc1ccc(S(=O)(=O)NC(CO)C(C(F)(F)F)C(F)(F)F)cc1 (centres unmarked) [Example 11, 4-methoxy-N-[3,3,3-trifluoro-1-(hydroxymethyl)-2-(trifluoromethyl)propyl]benzenesulfonamide]"
1.5,1.26,"Cc1ccc(S(=O)(=O)NC(CO)C(C(F)(F)F)C(F)(F)F)cc1 (centres unmarked) [Example 14, 4-methyl-N-[3,3,3-trifluoro-1-(hydroxymethyl)-2-(trifluoromethyl)propyl]benzenesulfonamide]"
2.29,1.94,"O=S(=O)(NC(CO)C(C(F)(F)F)C(F)(F)F)c1ccc(C(F)(F)F)cc1 (centres unmarked) [Example 17, N-[3,3,3-trifluoro-1-(hydroxymethyl)-2-(trifluoromethyl)propyl]-4-(trifluoromethyl)benzenesulfonamide]"
90.7,101,"N#Cc1ccc(S(=O)(=O)NC(CO)C(C(F)(F)F)C(F)(F)F)cc1 (centres unmarked) [Example 18, 4-Cyano-N-(3,3,3-trifluoro-1-hydroxymethyl-2-trifluoromethyl-propyl)-benzenesulfonamide]"
27.8,26.8,"O=[N+]([O-])c1ccc(S(=O)(=O)NC(CO)C(C(F)(F)F)C(F)(F)F)cc1 (centres unmarked) [Example 19, 4-nitro-N-(3,3,3-trifluoro-1-hydroxymethyl-2-trifluoromethyl-propyl)-benzenesulfonamide]"
8.51,6.42,"O=S(=O)(NC(CO)C(C(F)(F)F)C(F)(F)F)c1ccc(OC(F)(F)F)cc1 (centres unmarked) [Example 20, N-(3,3,3-trifluoro-1-hydroxymethyl-2-trifluoromethyl-propyl)-4-trifluoromethoxy-benzenesulfonamide]"
0.997,0.932,"O=S(=O)(NC(CO)C(C(F)(F)F)C(F)(F)F)c1ccc(Cl)cc1 (centres unmarked) [Example 21, 4-chloro-N-(3,3,3-trifluoro-1-hydroxymethyl-2-trifluoromethyl-propyl)-benzenesulfonamide]"
1.13,1.21,"O=S(=O)(NC(CO)C(C(F)(F)F)C(F)(F)F)c1ccc(F)cc1 (centres unmarked) [Example 26, 4-Fluoro-N-[3,3,3-trifluoro-1-(hydroxymethyl)-2-(trifluoromethyl)propyl]benzene sulfonamide]"
9.08,12.1,"O=S(=O)(NC(CO)C(C(F)(F)F)C(F)(F)F)c1cccc(F)c1 (centres unmarked) [Example 27, 3-fluoro-N-(3,3,3-trifluoro-1-hydroxymethyl-2-trifluoromethyl-propyl)-benzenesulfonamide]"
0.886,0.905,"O=S(=O)(NC(CO)C(C(F)(F)F)C(F)(F)F)c1ccc(Br)cc1 (centres unmarked) [Example 31, 4-bromo-N-(3,3,3-trifluoro-1-hydroxymethyl-2-trifluoromethyl-propyl)-benzenesulfonamide]"
2.22,2.4,"O=S(=O)(NC(CO)C(C(F)(F)F)C(F)(F)F)c1ccc(F)c(F)c1 (centres unmarked) [Example 34, 3,4-difluoro-N-(3,3,3-trifluoro-1-hydroxymethyl-2-trifluoromethyl-propyl)-benzenesulfonamide]"
9.77,11.2,"O=S(=O)(NC(CO)C(C(F)(F)F)C(F)(F)F)c1ccc(F)cc1F (centres unmarked) [Example 35, 2,4-difluoro-N-(3,3,3-trifluoro-1-hydroxymethyl-2-trifluoromethyl-propyl)-benzenesulfonamide]"
6.72,8.62,"O=S(=O)(NC(CO)C(C(F)(F)F)C(F)(F)F)c1ccc(F)c(Cl)c1 (centres unmarked) [Example 39, 3-chloro-4-fluoro-N-[3,3,3-trifluoro-1-(hydroxymethyl)-2-(trifluoromethyl)propyl]benzenesulfonamide]"
